The molecules below were run against T1, Human PPARα (Homo sapiens, UniProt Q07869) (assay: Human PPARα Reporter Assay (luciferase)). Details: human PPARα reporter cells, overnight incubation, antagonism; read-out: Luciferase IC50.
T1 construct: host or cells: proprietary non-human mammalian cells
T1 sequence (Q07869 1-468): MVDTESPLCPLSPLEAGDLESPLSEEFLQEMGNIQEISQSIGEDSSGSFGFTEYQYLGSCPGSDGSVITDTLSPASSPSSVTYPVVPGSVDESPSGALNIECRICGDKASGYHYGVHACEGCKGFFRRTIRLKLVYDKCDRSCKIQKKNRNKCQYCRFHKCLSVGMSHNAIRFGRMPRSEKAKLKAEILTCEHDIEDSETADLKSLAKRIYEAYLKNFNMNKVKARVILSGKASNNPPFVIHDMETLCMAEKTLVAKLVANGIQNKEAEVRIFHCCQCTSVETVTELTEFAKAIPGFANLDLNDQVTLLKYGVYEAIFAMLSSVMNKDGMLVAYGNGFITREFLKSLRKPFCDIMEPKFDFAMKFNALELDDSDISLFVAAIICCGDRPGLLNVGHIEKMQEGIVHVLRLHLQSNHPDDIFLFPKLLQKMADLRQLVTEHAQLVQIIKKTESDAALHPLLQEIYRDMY
Type: cell-based
Procedure, shortened: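 Agonist or antagonist activity read as luciferase light from engineered reporter cells carrying human PPARα and a responsive reporter gene. Cells got compound immediately on dispensing, incubated overnight, then treatment media swapped for luciferase detection reagent.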

| Structure (SMILES) | IC50 |
| --- | --- |
| CCn1c(CCCc2ccc(-c3ncc(N)cc3C(F)(F)F)cc2)nn(Cc2ccc(C(C)(C)C)cc2)c1=O [Example 156, 3-(3-{4-[5-Amino-3-(trifluoromethyl)(2-pyridyl)]phenyl}propyl)-1-{[4-(tert-butyl)phenyl]methyl}-4-ethyl-1,2,4-triazolin-5-one] | 684 nM |
| CCn1c(CCCc2ccc(-c3ccc(OC)c(CC(=O)O)c3)c(C)c2)nn(Cc2ccc(C(C)(C)C)cc2)c1=O [Example 157, 2-(4′-(3-(1-(4-(tert-Butyl)benzyl)-4-ethyl-5-oxo-4,5-dihydro-1H-1,2,4-triazol-3-yl)propyl)-4-methoxy-2′-methyl-[1,1′-biphenyl]-3-yl)acetic acid] | 94 nM |
| CCn1c(CCCc2ccc(-c3ccc(OC)c(CC(=O)O)c3)cc2OC)nn(Cc2ccc(C(C)(C)C)cc2)c1=O [Example 158, 2-(4′-(3-(1-(4-(tert-Butyl)benzyl)-4-ethyl-5-oxo-4,5-dihydro-1H-1,2,4-triazol-3-yl)propyl)-3′,4-dimethoxy-[1,1′-biphenyl]-3-yl)acetic acid] | 184 nM |
| CCn1c(CCCc2ccc(-c3ccc(OC)c(CC(=O)O)c3)c(OC)c2)nn(Cc2ccc(C(C)(C)C)cc2)c1=O [Example 159, 2-(4′-(3-(1-(4-(tert-Butyl)benzyl)-4-ethyl-5-oxo-4,5-dihydro-1H-1,2,4-triazol-3-yl)propyl)-2′,4-dimethoxy-[1,1′-biphenyl]-3-yl)acetic acid] | 410 nM |
| CCn1c(CCC(F)(F)c2ccc(-c3ccc(OC)c(CC(=O)O)c3)cc2)nn(Cc2ccc(C(C)(C)C)cc2)c1=O [Example 163, 2-(4′-(3-(1-(4-(tert-Butyl)benzyl)-4-ethyl-5-oxo-4,5-dihydro-1H-1,2,4-triazol-3-yl)-1,1-difluoropropyl)-4-methoxy-[1,1′-biphenyl]-3-yl)acetic acid] | 15 nM |
| CCn1c(CCCc2ccc(-c3ccc(C)c(C(=O)O)n3)cc2)nn(Cc2ccc(C(C)(C)C)cc2)c1=O [Example 165, 6-(4-(3-(1-(4-(tert-Butyl)benzyl)-4-ethyl-5-oxo-4,5-dihydro-1H-1,2,4-triazol-3-yl)propyl)phenyl)-3-methylpicolinic acid] | 202 nM |
| CCn1c(CCCc2ccc(-c3ccc(C4(F)COC4)nc3)cc2)nn(Cc2ccc(C(C)(C)C)cc2)c1=O [Example 166, 1-(4-(tert-Butyl)benzyl)-4-ethyl-3-(3-(4-(6-(3-fluorooxetan-3-yl)pyridine-3-yl)phenyl)propyl)-1H-1,2,4-triazol-5(4H)-one] | 91 nM |
| CC(C)(C)c1ccc(Cn2nc(CCCc3ccc(-c4ccc(C5(O)COC5)cc4)cc3)[nH]c2=O)cc1 [Example 167, 1-(4-(tert-Butyl)benzyl)-3-(3-(4%(3-hydroxyoxetan-3-yl)-[1,1′-biphenyl]-4-yl)propyl)-1H-1,2,4-triazol-5(4H)-one] | 454 nM |
| CCNC(=O)Nc1cccc(-c2ccc(CCCc3nn(Cc4ccc(C(C)(C)C)cc4)c(=O)n3CC)cc2)n1 [Example 171, 1-(6-(4-(3-(1-(4-(tert-Butyl)benzyl)-4-ethyl-5-oxo-4,5-dihydro-1H-1,2,4-triazol-3-yl)propyl)phenyl)pyridin-2-yl)-3-ethylurea] | 816 nM |
| CCn1c(CCCc2ccc(-c3cnc(C4(O)COC4)nc3)cc2)nn(Cc2ccc(C(C)(C)C)cc2)c1=O [Example 173, 1-(4-(tert-Butyl)benzyl)-4-ethyl-3-(3-(4-(2-(3-hydroxyoxetan-3-yl)pyrimidin-5-yl)phenyl)propyl)-1H-1,2,4-triazol-5(4H)-one] | 126 nM |
| CCn1c(CCCc2ccc(-c3ccc(C4(O)COC4)cc3)cc2)nn(Cc2ccc(C(C)(C)C)cc2)c1=O [Example 174, 1-(4-(tert-Butyl)benzyl)-4-ethyl-3-(3-(4′-(3-hydroxyoxetan-3-yl)-[1,1′-biphenyl]-4-yl)propyl)-1H-1,2,4-triazol-5(4H)-one] | 144 nM |

Continued by falling IC50, values first:

| IC50 | Structure (SMILES) |
| --- | --- |
| 647 nM | CCn1c(CCCc2ccc(-c3cccc(CN)c3)cc2)nn(Cc2ccc(C(C)(C)C)cc2)c1=O [Example 172, 3-(3-{4-[3-(Aminomethyl)phenyl]phenyl}propyl)-1-{[4-(tert-butyl)phenyl]methyl}-4-ethyl-1,2,4-triazolin-5-one] |
| 638 nM | CCn1c(CCCc2ccc(-c3ccc(C(F)(F)F)c(N)n3)cc2)nn(Cc2ccc(C(C)(C)C)cc2)c1=O [Example 161, 3-(3-{4-[6-Amino-5-(trifluoromethyl)(2-pyridyl)]phenyl}propyl)-1-{[4-(tert-butyl)phenyl]methyl}-4-ethyl-1,2,4-triazolin-5-one] |
| 630 nM | CCn1c(CCCc2ccc(-c3cnc(OC)c(C(=O)O)n3)cc2)nn(Cc2ccc(C(C)(C)C)cc2)c1=O [Example 162, 6-(4-(3-(1-(4-(tert-Butyl)benzyl)-4-ethyl-5-oxo-4,5-dihydro-1H-1,2,4-triazol-3-yl)propyl)phenyl)-3-methoxypyrazine-2-carboxylic acid] |
| 535 nM | CCNC(=O)Nc1ccc(-c2ccc(CCCc3nn(Cc4ccc(C(C)(C)C)cc4)c(=O)n3CC)cc2)nc1 [Example 169, 1-(6-(4-(3-(1-(4-(tert-Butyl)benzyl)-4-ethyl-5-oxo-4,5-dihydro-1H-1,2,4-triazol-3-yl)propyl)phenyl)pyridin-3-yl)-3-ethylurea] |
| 429 nM | CCn1c(CCCc2ccc(-c3ccc(NC(=O)NS(=O)(=O)c4ccccc4)cn3)cc2)nn(Cc2ccc(C(C)(C)C)cc2)c1=O [Example 160, N-((6-(4-(3-(1-(4-(tert-Butyl)benzyl)-4-ethyl-5-oxo-4,5-dihydro-1H-1,2,4-triazol-3-yl)propyl)phenyl)pyridin-3-yl)carbamoyl)benzenesulfonamide] |
| 362 nM | CCn1c(CCCc2ccc(-c3cccc(NC(=O)NCc4ccccc4)n3)cc2)nn(Cc2ccc(C(C)(C)C)cc2)c1=O [Example 155, 1-Benzyl-3-(6-(4-(3-(1-(4-(tert-butyl)benzyl)-4-ethyl-5-oxo-4,5-dihydro-1H-1,2,4-triazol-3-yl)propyl)phenyl)pyridin-2yl)urea] |
| 78 nM | CCn1c(CCCc2ccc(-c3ccc(C4(O)CCC4)cc3)cc2)nn(Cc2ccc(C(C)(C)C)cc2)c1=O [Example 176, 1-(4-(tert-Butyl)benzyl)-4-ethyl-3-(3-(4′-(1-hydroxycyclobutyl)-[1,1′-biphenyl]-4-yl)propyl)-1H-1,2,4-triazol-5(4H)-one] |
| 41 nM | CCn1c(CCCc2ccc(-c3cnc(C4(F)COC4)nc3)cc2)nn(Cc2ccc(C(C)(C)C)cc2)c1=O [Example 170, 1-(4-(tert-Butyl)benzyl)-4-ethyl-3-(3-(4-(2-(3-fluorooxetan-3-yl)pyrimidin-5-yl)phenyl)propyl)-1H-1,2,4-triazol-5(4H)-one] |
| 20 nM | CCn1c(CCCc2ccc(-c3ccc(C(F)(F)F)c(NS(=O)(=O)c4ccccc4)n3)cc2)nn(Cc2ccc(C(C)(C)C)cc2)c1=O [Example 164, 1-{[4-(tert-Butyl)phenyl]methyl}-4-ethyl-3-[3-(4-{6-[(phenylsulfonyl)amino]-5-(trifluoromethyl)(2-pyridyl)}phenyl)propyl]-1,2,4-triazolin-5-one] |
| 9 nM | CCCOc1ccc(-c2ccc(CCCc3nn(Cc4ccc(C(C)(C)C)cc4)c(=O)n3CC)cc2)cc1C(=O)O [Example 168, 4′-(3-(1-(4-(tert-Butyl)benzyl)-4-ethyl-5-oxo-4,5-dihydro-1H-1,2,4-triazol-3-yl)propyl)-4-propoxy-[1,1′-biphenyl]-3-carboxylic acid] |

Reference: patent US9505728B2, “Triazolone compounds and uses thereof” (INCEPTION 2, INC., priority 2012, dated 2016)
